In brackets after ≈: the same amount, converted by molar mass. Where a SMILES comes first, the peptide text is derived from it. [ ]: non-standard residue; d: D form.
Key:
[1] = Peptide aggregation in RPMI + 10% FBS with PBMCs (microscopy); type: physicochemical; conditions: 50 μg/ml, overnight
Method in brief: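 Peptides added to human PBMCs in RPMI with 10% FBS, incubated overnight at 37 °C, 5% CO2; aggregation assessed qualitatively by inverted light microscopy at 10× magnification.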

P. aeruginosa LESB58 [2] = assay: Murine sinusitis model, P. aeruginosa; type: in vivo, mouse; Pseudomonas aeruginosa
Excerpt: FIGS. 15A-15I show peptides AB101-D, AB102-D and AB103-D compared to DJK5 in a murine sinusitis model of bacterial infections. MRSA USA300, nasal cavity (FIG. 15A) P. aeruginosa LESB58 (FIG. 15B and FIG. 15C, nasal cavity); MRSA USA300, lung tissue (FIG. 15D) P. aeruginosa LESB58 (FIG. 15E and FIG. 15F, lung tissue); and MRSA USA300, weight change (FIG. 15G) P. aeruginosa LESB58 (FIG. 15H and FIG. 15I, weight change).
A murine sinusitis model of bacterial infections in the nasal cavity of mice [Alford et al. (2021). Murine model of sinusitis infection for screening antimicrobial and immunomodulatory therapies. Frontiers in Cellular and Infection Microbiology., 11, 621081] was used to determine the efficacy of D-amino acid peptides AB101-D, AB102-D and AB103-D compared to DJK5. […]. Treatment was applied either as dropwise administration of a peptide solution (20 μl) to the infected naris of a mouse (FIGS. 15A, 15B, 15D, 15E, 15G, 15H) or peptide was delivered using a Respimat® inhaler device (FIGS. 15C, 15F, 15I). Mice were monitored and weighed once daily for up to three days then euthanized prior to collection of nasal lavage fluid and lung tissue for bacterial enumeration. The limit of detection is shown by the dotted line at log CFU=2. […] Accordingly, the results indicated enhanced efficacy of D-amino acid peptides AB101-D, AB102-D and AB103-D compared to DJK5 in this murine model.

P. aeruginosa LESB58 [3] = assay: Murine model of abscess infections; type: in vivo, murine; Pseudomonas aeruginosa
MRSA preformed biofilms = assay: Biofilm eradication of 24-hr preformed biofilms (TTC metabolic dye), MRSA; type: cell-based, methicillin resistant Staphylococcus aureus; conditions: 24-hr preformed biofilms treated overnight
[4] = system: Staphylococcus haemolyticus; assay: MIC (broth microdilution) of peptides, S. haemolyticus; type: cell-based; conditions: mode of three biological replicates
Description: Minimal inhibitory concentration (MIC) against planktonic bacteria: The MIC of the synthetic peptides was determined in Mueller-Hinton broth (MHB) using the broth microdilution method described previously [Wiegand, I., Hilpert, K., & Hancock, R. E. (2008). Agar and broth dilution methods to determine the minimal inhibitory concentration (MIC) of antimicrobial substances. Nature Protocols, 3(2), 163-175]. Briefly, 10 μl of a 10× concentrated peptide solution was placed in the bottom of a well in a 96-well polypropylene round bottom plate (Corning Inc.). A bacterial suspension of ~5×10^5 CFU/ml was prepared from an overnight culture and 90 μl of this was added to each well. […] Bacteria tested included P. aeruginosa PAO1, MRSA USA300 LAC, Staphylococcus haemolyticus, Staphylococcus epidermidis, Klebsiella pneumoniae and Streptococcus salivarius.
Finally, the AB103-D derivatives that were the least aggregation prone and which produced the lowest toxic effects in vivo were evaluated for their direct antibacterial activity towards several pathogens of clinical relevance using a standard minimum inhibitory concentration (MIC) assay [Wiegand, I., Hilpert, K., & Hancock, R. E. (2008). Agar and broth dilution methods to determine the minimal inhibitory concentration (MIC) of antimicrobial substances. Nature Protocols, 3(2), 163-175]. Specifically, peptides AB110-D, AB111-D, AB114-D and AB115-D were tested against P. aeruginosa PAO1, MRSA USA 300, Staphylococcus haemolyticus, Staphylococcus epidermidis, Klebsiella pneumoniae and Streptococcus salivarius and compared against the antibacterial activity of DJK-5 and AB103-D (Table 7). Overall, the antibacterial potency of all of the AB103-D derivatives was stronger than that seen for DJK-5, particularly in the case of the Gram-negative pathogens P. aeruginosa and K. pneumoniae. […]

E. coli O157:H7 = assay: Biofilm inhibition (at least 80%), E. coli; type: cell-based, Escherichia coli; conditions: n = 3, BM2 minimal media, 18-24 hours, crystal violet
[5] = Subdermal murine toxicity model; conditions: for Clinical score: 1 hour after subcutaneous administration, comparator DJK-5
Method in brief: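 Peptides given subdermally to shaved, depilated, isoflurane-anaesthetised female CD-1 mice (8 weeks, 25±5 g) at 4 mg/kg. Summed clinical scores taken at 1 h; cyst or lesion presence and caliper size recorded at 16 h. Values are the mean of two independent replicates.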

Structure (SMILES)	Peptide aggregation [1]	Bacteria in nasal cavity and lungs (P. aeruginosa LESB58 [2]; P. aeruginosa LESB58, 0.1 mg dose, compared to DJK5)	Abscess size (P. aeruginosa LESB58 [3])	Decrease in abscess formation (P. aeruginosa LESB58 [3])	IC50 (MRSA preformed biofilms)	MIC [4]	Peptide/Antibiotic Concentration where at least 80% of biofilm growth was inhibited (E. coli O157:H7)	Clinical score [5]	Average cyst size compared to DJK-5 ([5]; 16 hours after administration, 4 mg/kg)	Weight loss (P. aeruginosa LESB58 [2]; P. aeruginosa LESB58 infected mice)
CC[C@@H](C)[C@@H](NC(=O)[C@@H](C)NC(=O)[C@@H](CCCNC(=N)N)NC(=O)[C@@H](Cc1c[nH]c2ccccc12)NC(=O)[C@@H](CCC(N)=O)NC(=O)[C@H](NC(=O)[C@@H](CCCNC(=N)N)NC(=O)[C@H](NC(=O)[C@H](NC(=O)[C@@H](CCCNC(=N)N)NC(=O)[C@H](NC(=O)[C@H](N)CCCNC(=N)N)C(C)C)C(C)C)[C@H](C)CC)C(C)C)C(N)=O [AB103-D, rvrvirvqwrai-NH2] (H-[dR][dV][dR][dV][dI][dR][dV][dQ][dW][dR][dA][dI]-NH2)	some small aggregates	reduced the amount of bacteria in the nasal cavity and lungs of mice much more than DJK5 treatment	reduced abscess size	77%	2.2 µM	0.8 µg/mL (≈ 0.516 µM)	1 µg/mL	< 2	smaller than those induced by DJK-5	–
CC[C@@H](C)[C@@H](NC(=O)[C@@H](C)NC(=O)[C@@H](CCCNC(=N)N)NC(=O)[C@@H](Cc1c[nH]c2ccccc12)NC(=O)[C@@H](CCC(N)=O)NC(=O)[C@H](N)C(C)C)C(=O)N[C@H](CCCNC(=N)N)C(=O)N[C@@H](C(=O)N[C@H](CCCNC(=N)N)C(=O)N[C@@H](C(=O)N[C@@H](C(=O)N[C@H](CCCNC(=N)N)C(N)=O)[C@H](C)CC)C(C)C)C(C)C [DJK5, vqwrairvrvir-NH2] (H-[dV][dQ][dW][dR][dA][dI][dR][dV][dR][dV][dI][dR]-NH2)	No appreciable aggregation	–	–	54%	1.6 µM	0.8 µg/mL (≈ 0.516 µM)	1 µg/mL	2	–	did not prevent weight loss
